# Structures can show the parent of a compound that is named as a salt. Where two headings read alike, the source gives them in different places.
# Tests used:
# [1] = tested on: SNU-389 cells; assay: Antiproliferation assay SNU-389 (Assay 7); type: cell-based; details: 72 h, read-out: Antiproli SNU-389 IC50
# How it was run: (§1)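 Growth inhibition is determined from ATP luminescence (CellTiter-Glo) following 72 h incubation with compound. Time-zero cells are measured the same way for baseline, and IC50s are referenced to DMSO controls.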
# [2] = target: MCL1 protein / biotinylated BIM BH3 peptide in RKO cells (Homo sapiens (Human), UniProt Q07820); assay: PIxEL: protein-protein interaction in permeabilized cells by ELISA (Assay 5); type: cell-based; details: PIxEL IC50 (median)
# Protocol: PIxEL: Protein-Protein Interaction in Permeabilized Cells by ELISA
# Most MCL1 protein molecules are localized at the mitochondria outer membrane and sequester pro-apoptotic proteins through binding of their BCL2 homology domain 3 (BH3 domain). MEB buffer (150 mM mannitol, 10 mM HEPES pH 7.5, 50 mM KCl, 20 μM EDTA, 20 μM EGTA, 5 mM potassium succinate, 0.1% protease-free BSA (SIGMA) with low dose digitonin (0.002%) permeabilizes plasma membrane while leaves live mitochondria, where MCL1 maintains its native localization and conformation. Unlike biophysical assays (e.g. TR-FRET) that use truncated recombinant MCL1 protein, this assay uses full length endogenous MCL1 protein at mitochondria outer membrane. It measures the interaction between MCL1 protein and biotinylated BIM BH3 peptide. Compounds can compete with BIM BH3 peptide to bind to MCL1 protein.
# On day 1, RKO colon cancer cell line cells were plated at 0.8 million cells/ml, 100 μl/well in 96-well flat bottom TC plates (Corning). MCL1 antibody (Santa Cruz sc-12756) were diluted at 200 fold (final concentration 1 μg/ml) in carbonate buffer (Thermo Fisher Scientific, pH 9.6), and 50 μl of diluted antibody was added to each well of high bind ELISA plates ([…]). Each plate was tapped to make sure liquid covering entire bottom of wells and incubate at 37° C. overnight.
# On the second day, MCL1 antibody was washed from ELISA plate. 250 μl Odyssey® Blocking Buffer (PBS) (Li-Cor) was added to each well, incubated at room temperature for at least 1 hour, then washed once with 250 μl 1×PBST. Plates with RKO cells were gently washed once with 100 μl/well PBS, once with 100 μl/well MEB buffer without digitonin, then 100 μl of MEB buffer with 0.002% digitonin was gently added to each well. Compounds were added with HP Tecan compound dispenser in 3-fold dilution series, highest dose 30 μM, 10-dose per compound in quadruplicates. Biotin-BIM peptide (synthesized by 21st Century) was added with HP Tecan compound dispenser at 0.2 μM immediately after the addition of compounds. Plates were rocked for 1 hour at room temperature. Then MEB buffer was aspirated and 50 μl of CHAPS buffer (50 mM Tris-Cl, pH 7.4, 150 mM NaCl, 1% CHAPS, 1 mM EDTA, 1 mM EGTA, cOmplete protease inhibitors (Roche), PhosSTOP (Roche)) was added to each well. Plates were rocked for 1 hour at 4° C., then 45 μl cell lysate from each well were transferred to ELISA plates coated with MCL1 antibody. Plates were incubated overnight in the cold room with rocking.
# On the third day, ELISA plates were washed once with 250 μl 1×PBST. Streptavidin-poly-HRP (Thermo Fisher Scientific) was diluted to 20 ng/ml in Odyssey blocking buffer plus 0.05% Triton-100, and 100 μl was added to each well of the ELISA plate. Plates were incubated at room temperature for 1 hour with rocking, then washed with 100 μl 1×PBST for 3 times. Each SuperSignal ELISA Femto Maximum Sensitivity substrate was added to a 50-ml tube and mixed, then 100 μl of mixed substrate was added to each well. Plates were shaken for 1 minute then luminescence was measured by Envision plate reader […]. Signal of each well were normalized by no-compound control and no-cell control. IC50 was calculated using Graphic Pad PRISM software.
# [3] = target: MCL-1 (Homo sapiens (Human), UniProt Q07820, K194A/K197A/R201A); assay: Protein-compound interaction assay (SPR assay, Assay 9); type: binding; details: for Kd: KD (geometric mean), SPR, 25° C.; for koff: read-out: koff (geometric mean), SPR, 25° C.; for kon: read-out: kon (geometric mean), SPR, 25° C.
# From the text: Assay 9 Protein-Compound Interaction Assay (SPR Assay)
# The ability of the compounds described in this invention to bind to MCL-1 may be determined using surface plasmon resonance (SPR). This allows for the quantification of binding in terms of the equilibrium dissociation constant (KD [M]), as well as association and dissociation rate constants (kon [1/Ms] and koff [1/s], respectively). The measurements may be performed using Biacore® T200 or Biacore® S200 instruments (GE Healthcare).
# Briefly, carboxymethylated dextran biosensor chips (Series S Sensor Chip CMS, GE Healthcare) were activated with 1-ethyl-3-(3-dimethylaminopropyl)-carbodiimide hydrochloride (EDC) and N-hydroxysuccinimide (NHS) according to the supplier's instructions. MBP-MCL-1 was diluted in 1×PBS-P+ (GE Healthcare) and injected on the activated chip surface. Subsequently, a solution of 1 M ethanolamine-HCl (GE Healthcare) was injected to block unreacted groups, resulting in approximately 400-2500 response units (RU) of immobilized protein. A reference surface was generated by treatment with NHS-EDC and ethanolamine-HCl. […] Compounds were injected for 60 s followed by a dissociation time of up to 1000 s.
# The double-referenced sensorgrams were fit to a simple reversible Langmuir 1:1 reaction mechanism as implemented in the Biacore® T200 and S200 evaluation software (T200 evaluation software version 2.0 and S200 evaluation software version 1.0, GE Healthcare).
# [4] = tested on: DMS-114 cells; assay: Antiproliferation assay DMS-114 (Assay 7); type: cell-based; details: Homo sapiens, read-out: Antiproli DM-S114 IC50 median
# How it was run: as §1
# [5] = tested on: MV-4-11 cells; assay: Antiproliferation assay MV-4-11 (Assay 7); type: cell-based; details: CellTiter-Glo, read-out: Antiproli MV-4-11 IC50 median
# Protocol: Assessment of the Anti-Proliferative Effect of Compounds in Different Cell Lines
# The impact of compounds on the proliferation of different cell lines was assessed using the CellTiter-Glo® Luminescent Cell Viability reagent from Promega (G7573).
# In parallel, cells were plated in a reference (day 0) plate for time zero determination. Cells were incubated in a humidified incubator at 37° C. overnight.
# Rim wells were excluded. The cells were incubated for 72 h hours in a humidified incubator at 37° C. The day 0 plate was measured by adding 30 μL/well of CTG solution (CellTiter-Glo® Luminescent Cell Viability reagent, Promega G7573) to time zero wells in the reference plate followed by a 10 minutes incubation and luminescence reading at 0.1 ms. using the PHERAstar FS microplate reader (BMG Labtech).
# After 72 h incubation, the treated plates were measured in the same way as the day 0 plate mentioned above. The Bella DRC Master Sheet was used to calculate IC50s, with CI=day 0 values and C0=DMSO control values.
# MCL-1, sequence (Q07820 whole entry K194A/K197A/R201A, looked up): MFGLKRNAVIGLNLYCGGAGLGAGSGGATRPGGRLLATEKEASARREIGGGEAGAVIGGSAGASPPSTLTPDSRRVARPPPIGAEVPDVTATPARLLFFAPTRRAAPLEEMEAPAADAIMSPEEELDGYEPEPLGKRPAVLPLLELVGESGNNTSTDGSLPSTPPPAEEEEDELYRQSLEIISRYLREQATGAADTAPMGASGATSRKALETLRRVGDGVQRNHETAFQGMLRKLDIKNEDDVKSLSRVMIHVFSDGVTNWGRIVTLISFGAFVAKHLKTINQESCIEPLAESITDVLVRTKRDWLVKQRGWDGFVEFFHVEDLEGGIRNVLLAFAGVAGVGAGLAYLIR
# MCL1 protein / biotinylated BIM BH3 peptide in RKO cells, sequence (Q07820 whole entry): as the sequence (Q07820 whole entry K194A/K197A/R201A, looked up) above, with A194K, A197K, A201R counted along it
Structure (SMILES),IC50 [2] [nM],Kd [3] [nM],koff [3] [s⁻¹],kon [3] [M⁻¹ s⁻¹],other results
"CCc1c2c(nn1C)C(CCOC)OCCCCn1c(C(=O)O)c(CCCOc3cccc4cc(F)ccc34)c3ccc(Cl)c-2c31 (single isomer, unassigned; enantiomer 1) [Example 42, (+)-4-chloro-3-ethyl-7-{3-[(6-fluoronaphthalen-1-yl)oxy]propyl}-15-(2-methoxyethyl)-2-methyl-2,10,11,12,13,15-hexahydropyrazolo[4′,3′:9,10][1,6]oxazacycloundecino[8,7,6-hi]indole-8-carboxylic Acid—N-ethylethanamine Salt (Enantiomer 1)]",45.1,2.8,0.0032,1.2e+06,"IC50 [1]: 270 nM; IC50 ([4]; DMS-114, 72 h): 156 nM"
"Cc1c2c(nn1C)C(CCO)OCCCCn1c(C(=O)O)c(CCCOc3cccc4ccccc34)c3ccc(Cl)c-2c31 (single isomer, unassigned; enantiomer 1) [Example 31, (+)-4-chloro-15-(2-hydroxyethyl)-2,3-dimethyl-7-{3-[(naphthalen-1-yl)oxy]propyl}-2,10,11,12,13,15-hexahydropyrazolo[4′,3′:9,10][1,6]oxazacycloundecino[8,7,6-hi]indole-8-carboxylic Acid (Enantiomer 1)]",481,1.8,0.008,4.4e+06,–
"CCC1OCCCCn2c(C(=O)O)c(CCCOc3cccc4ccccc34)c3ccc(Cl)c(c32)-c2c1nn(C)c2C (single isomer, unassigned; enantiomer 1) [Example 29, (+)-4-chloro-15-ethyl-2,3-dimethyl-7-{3-[(naphthalen-1-yl)oxy]propyl}-2,10,11,12,13,15-hexahydropyrazolo[4′,3′:9,10][1,6]oxazacycloundecino[8,7,6-hi]indole-8-carboxylic Acid—N-ethylethanamine Salt (Enantiomer 1)]",1060,8.3,0.014,1.7e+06,–
"Cc1c2c(nn1C)C(CCN1CCOCC1)OCCCCn1c(C(=O)O)c(CCCOc3cccc4cc(F)ccc34)c3ccc(F)c-2c31 (racemic) [Example 19, (rac)-4-fluoro-7-{3-[(6-fluoronaphthalen-1-yl)oxy]propyl}-2,3-dimethyl-15-[2-(morpholin-4-yl)ethyl]-2,10,11,12,13,15-hexahydropyrazolo[4′,3′:9,10][1,6]oxazacycloundecino[8,7,6-hi]indole-8-carboxylic Acid]",–,–,–,–,"IC50 ([5]; Homo sapiens, MV4-11, 72 h): 140 nM"
"Cc1c2c(nn1C)C(CCN1CCOCC1)OCCCCn1c(C(=O)O)c(CCCOc3cccc4cc(F)ccc34)c3ccc(Cl)c-2c31 (single isomer, unassigned; enantiomer 1) [Example 17, 4-chloro-7-{3-[(6-fluoronaphthalen-1-yl)oxy]propyl}-2,3-dimethyl-15-[2-(morpholin-4-yl)ethyl]-2,10,11,12,13,15-hexahydropyrazolo[4′,3′:9,10][1,6]oxazacycloundecino[8,7,6-hi]indole-8-carboxylic Acid—N-ethylethanamine (Enantiomer 1)]",35.7,0.77,0.015,2e+07,–
"CCc1c2c(nn1C)C(CCO)OCCCCn1c(C(=O)O)c(CCCOc3cccc4cc(F)ccc34)c3ccc(Cl)c-2c31 (single isomer, unassigned; enantiomer 1) [Example 45, (+)-4-chloro-3-ethyl-7-{3-[(6-fluoronaphthalen-1-yl)oxy]propyl}-15-(2-hydroxyethyl)-2-methyl-2,10,11,12,13,15-hexahydropyrazolo[4′,3′:9,10][1,6]oxazacycloundecino[8,7,6-hi]indole-8-carboxylic Acid (Enantiomer 1)]",155,2.3,0.0068,3e+06,"IC50 ([1]; CellTiter-Glo): 350 nM; IC50 ([4]; DMS-114 cells, 72 h, CellTiter-Glo): 298 nM"
"Cc1c2c(nn1C)C(CCN1CCOCC1)OCCCCn1c(C(=O)O)c(CCCOc3cccc4ccccc34)c3ccc(Cl)c-2c31 (racemic) [Example 13, (rac)-4-chloro-2,3-dimethyl-15-[2-(morpholin-4-yl)ethyl]-7-{3-[(naphthalen-1-yl)oxy]propyl}-2,10,11,12,13,15-hexahydropyrazolo[4′,3′:9,10][1,6]oxazacycloundecino[8,7,6-hi]indole-8-carboxylic Acid]",–,–,–,–,"IC50 ([5]; Homo sapiens, MV4-11, 72 h): 220 nM"
"Cc1c2c(nn1C)C(CCN1CCOCC1)OCCCCn1c(C(=O)O)c(CCCOc3cccc4ccccc34)c3ccc(Cl)c-2c31 (single isomer, unassigned; enantiomer 2) [Example 15, 4-chloro-2,3-dimethyl-15-[2-(morpholin-4-yl)ethyl]-7-{3-[(naphthalen-1-yl)oxy]propyl}-2,10,11,12,13,15-hexahydropyrazolo[4′,3′:9,10][1,6]oxazacycloundecino[8,7,6-hi]indole-8-carboxylic Acid (Enantiomer 2)]",12500,–,–,–,IC50 ([5]; 72 h): 7840 nM
"CCc1c2c(nn1C)C(C(F)(F)F)OCCCCn1c(C(=O)O)c(CCCOc3cccc4ccccc34)c3ccc(Cl)c-2c31 (single isomer, unassigned; enantiomer 1) [Example 33, (+)-4-chloro-3-ethyl-2-methyl-7-{3-[(naphthalen-1-yl)oxy]propyl}-15-(trifluoromethyl)-2,10,11,12,13,15-hexahydropyrazolo[4′,3′:9,10][1,6]oxazacycloundecino[8,7,6-hi]indole-8-carboxylic Acid—N-ethylethanamine Salt (Enantiomer 1)]",1510,–,–,–,–

# From US11440923B2, “Substituted macrocyclic indole derivatives” (Bayer Aktiengesellschaft, priority 2017, dated 2022)
